For one assay, the system named is ERalpha. Put plainly: Nucleocytoplasmic fractionation and Western blot for ER in MCF-7 cells. The class given is cell-based, human. The conditions noted are these: 5 or 30 min treatment, FIG. 4A. As to the method:
(§1) The oestrogen receptor α-positive MCF-7 human breast adenocarcinoma cell line, acquired from American Type Culture Collection (no. HTB-22, ATCC-LGC Promochem, Teddington, UK), was cultured in Dulbecco's modified eagle's medium (DMEM; Invitrogen, Karlsruhe, Germany), supplemented with 10% foetal bovine serum (FBS; Invitrogen) and antibiotics. Primary cultures of human oestrogen-sensitive keratinocytes (KCs) were established from 1 cm^2 full-thickness mucosal biopsy of the vaginal vestibule. […]
(§2) MCF-7 cells untreated or treated with KGF or E2 were lysed in RIPA buffer. […] The bound antibody was detected by enhanced chemiluminescence detection reagents (Pierce Biotechnology, Inc, Rockford, Ill., USA), according to manufacturer's instructions. […] Densitometric analysis was performed using Quantity One Program (Bio-Rad Laboratories srl, Segrate, MI, Italy).
The cells were harvested in PBS and centrifuged at 2000 rpm for 5 minutes to obtain a pellet, resuspended in cellular lysis buffer containing Hepes 10 mM pH 8, 50 mM NaCl, 1 mM EDTA pH 8, 0.2% TritonX100, sucrose 500 mM and protease inhibitors, stirred, and placed in ice for 15 min. […] The efficiency of the fractionation was analysed by means of immunoblotting using an anti-β-tubulin antibody as cytoplasmic marker and an anti-lamin B antibody as nuclear marker.
On the technique in general: In western blotting, separated proteins are transferred to a membrane and probed.

The test system of another assay is KGFR. Put plainly: KGFR protein expression by Western blot in MCF-7 cells. The class given is cell-based, human. The conditions noted are these: E2 20 ng/ml, 24 h, FIG. 3A. The method, then: as §1, with “vestibule. Following enzymatic dissociation, the keratinocytes were seeded onto culture plates coated with collagen IV (10 mg/ml), as previously reported [Panici et al, 2007], and were maintained in basal medium of the keratinocytes (KBM, Lonza) supplemented with aliquots of KGM (Lonza), with medium change twice a week.” for “vestibule.”
as §2

Assay [1] deals with human oestrogen-sensitive keratinocytes (KCs). Description: Proliferation of primary vaginal keratinocytes (Ki67 immunofluorescence; crystal violet). The format is cell-based. The conditions noted are these: for proliferative effect in the presence of tamoxifen: tamoxifen 100 nM, anti-Ki67 and crystal violet, FIG. 1D. The method, then: The oestrogen receptor α-positive MCF-7 human breast adenocarcinoma cell line, acquired from American Type Culture Collection (no. HTB-22, ATCC-LGC Promochem, Teddington, UK), was cultured in Dulbecco's modified eagle's medium (DMEM; Invitrogen, Karlsruhe, Germany), supplemented with 10% foetal bovine serum (FBS; Invitrogen) and antibiotics. Primary cultures of human oestrogen-sensitive keratinocytes (KCs) were established from 1 cm^2 full-thickness mucosal biopsy of the vaginal vestibule. Following enzymatic dissociation, the keratinocytes were seeded onto culture plates coated with collagen IV (10 mg/ml), as previously reported [Panici et al, 2007], and were maintained in basal medium of the keratinocytes (KBM, Lonza) supplemented with aliquots of KGM (Lonza), with medium change twice a week. For all the experiments with 17β-oestradiol (E2) and tamoxifen, the MCF-7 cells were cultivated in DMEM without phenol red with 10% FBS treated with dextran/carbon (Invitrogen), and the KCs were transferred to a steroid medium of reduced concentration (KGM without EGF and BPE). […]
The cells, grown on glass coverslips, were treated as described above, then fixed in 4% paraformaldehyde in phosphate-buffered saline (PBS) for 30 min at 25° C., followed by treatment with 0.1 M glycine in PBS for 20 min at 25° C. and with 0.1% Triton X-100 in PBS for an additional 5 min at 25° C. to allow permeabilisation. To assess cell proliferation, the cells were incubated with an anti-Ki67 rabbit polyclonal antibody (1:50 in PBS; Zymed Laboratories, San Francisco, Calif.), which identifies cycling cells. The primary antibody was visualised using Texas Red conjugated goat anti-rabbit IgG (1:100 in PBS; Jackson ImmunoResearch Laboratories, West Grove, Pa.). The nuclei were visualised using 4′,6-diamido-2-phenylindole dihydrochloride (DAPI) (1:10000 in PBS; Sigma-Aldrich). Fluorescence signals were analysed by recording stained images using a cooled CCD colour digital camera SPOT-2 (Diagnostic Instruments Incorporated, Sterling Heights, Mich.) and Axiovision software (Carl Zeiss Inc., Oberkochen, Germany).
The percentage of Ki67-positive cells was evaluated by counting, for each treatment, a total of 500 cells, randomly taken from ten microscopic fields in three different experiments, expressed as mean value±95% CI and recorded as graphs. For the experiments concerning localisation of ERα, the cytoskeleton of actin was visualised using TRITC phalloidin (1:100 in PBS) and ERα was visualised using an anti-ERα monoclonal antibody (Santa Cruz) (1:100 in PBS). The stained single and combined images were captured using Zeiss Apotome® and AxioVision software (Carl Zeiss, Jena, Germany) using 40× lenses.
To evaluate the cytotoxicity of cells treated with tamoxifen, the MCF-7 cells were treated as described above, fixed for 10 min in a solution of 10% acetic acid-10% methanol, stained with crystal violet (1% w/v) and photographed using a Power Shot G5 digital camera (Canon, Inc., Tokyo, Japan).

The source of these data is patent US9827292B2, “Use of KGF in the treatment of menopausal disorders” (Università degli Studi di Roma “La Sapienza”, priority 2012, dated 2017).

Consider `C[C@]12CC[C@@H]3c4ccc(O)cc4CC[C@H]3[C@@H]1CC[C@@H]2O` [E2, 17β-oestradiol], for which the “redistribution of ER between cytoplasmic and nuclear fractions” value in the assay on ERalpha was “dramatic redistribution of ER in the nucleus”. The KGFR protein level entry with KGFR was “a rise in the protein KGFR”. The “efficacy in terms of cell proliferation of E2 compared to KGF (Ki67-positive cells)” value in assay [1] (low doses (0.5 ng/ml), 24 h, FIG. 1A) is 1.2 fold increase. The “proliferative effect in the presence of tamoxifen” value in assay [1] is listed as “inhibited by the presence of tamoxifen”.

B1: keratinocyte growth factor (protein, listed as Homo sapiens)
chain: MHKWILTWILPTLLYRSCFHIICLVGTISLACNDMTPEQMATNVNCSSPERHTRSYDYMEGGDIRVRRLFCRTQWYLRIDKRGKVKGTQEMKNNYNIMEIRTVAVGIVAIKGVESEFYLAMNKEGKLYAKKECNEDCNFKELILENHYNTYASAKWTHNGGEMFVALNQKGIPVRGKKTKKEQKTAHFLPMAIT
notes: human recombinant KGF (Upstate Biotechnology)
Regarding B1, the “redistribution of ER between cytoplasmic and nuclear fractions” value with ERalpha was “does not appear able to induce any significant redistribution of the receptor in the nucleus”. In assay [1] (20 ng/ml for KGF and 2.7 ng/ml for E2, FIG. 1A), the “proliferative effect compared to E2 (Ki67-positive cells)” value was “absolutely comparable to that of the hormone”. Moreover, in assay [1] (20 ng/ml, KC from pre-menopausal and post-menopausal women, FIG. 1B), the “stimulation of proliferation of the vaginal epithelium in pre-menopausal and post-menopausal populations” value is “able to stimulate proliferation of the vaginal epithelium in a manner comparable to that of oestradiol”. Besides, in assay [1], the “proliferative effect in the presence of tamoxifen” value is listed as “able to stimulate cell proliferation even in the presence of tamoxifen”.
